Laboratory results as given in patent US6271384A, “Self-assembled taxo-diterpenoid nanostructures” (The Scripps Research Institute, priority 1998, dated 2001).
Where a name gives a salt, the structure may show the parent alone. One block for each compound: values may come before it.

Tests used:
[1] = test system: A549 non-small cell lung adenocarcinoma xenograft; assay: Efficacy in lung tumor xenograft nude mouse model
serum protein = assay: Displacement of the MPT group by serum protein and dialysis of the protein:taxol intermediate
Source text: (§1) However, the release of taxol from taxol-2'-MPT can also be catalyzed by serum protein and by proteins having nucleophilic groups. […] Dialysis of the protein:taxol intermediate indicates a dissociation period of hours or days. Displacement of the MPT group by serum proteins seems to be specific for such serum proteins. […] The precise nature of the bonding between the protein and taxol has not been characterized. Scheme 2 illustrates alternative pathways for MPT release.

[2] = Self-assembly: optical density at 340 nm, light scattering and TEM; format: physicochemical
Source text: Transmission electron microscopy (TEM) confirmed the presence of supramolecular structures in these solutions. […] It is likely that the long term stability of these solutions is due, at least in part, to stabilization provided by this structured environment.

[3] = Kinetics of taxol release / breakdown in plasma (HPLC); format: in vitro ADME, human; settings: methylene chloride extraction, 25° C.
tubulin = assay: Microtubule (tubulin) polymerization-depolymerization measurements; format: biochemical; settings: for suppression of calcium chloride promoted depolymerization: 10^-6 M, CaCl2 0.25 mM, 1.0 mM GTP, 37° C.
Protocol: Tubulin polymerization-depolymerization measurements are illustrate in FIG. 3. Negative controls are shown with triangles; positive taxol controls are shown with diamonds; and taxol-2'-MPT, i.e., compound 2 is shown with dots.
More particularly, measurement were performed in 96 well plates at 37° C. following the protocol of R. Merlock and W. Wrasidlo (Analytical Biochemistry 1993, in press). Calcium chloride addition is indicated by the arrow. In each case, 1.0 mM GTP was used to promote the initial polymerization of tubulin. Negative control employed tubulin (1.0 mg/mL) alone, CaCl2 (0.25 mM) added after 20 minutes. Positive taxol control employed tubulin (1.0 mg/mL) with taxol (10^-6 M) and CaCl2 (0.25 mM) added after 20 minutes. The experimental taxol-2'-MPTemployed tubulin (1.0 mg/mL) with taxol-2'-MPT (10^-6) and CaCl2 (0.25 mM) added after 20 minutes. Turbidity was measured as optical density at 340 nm using a microplate reader (Molecular Devices Thermomax).

[4] = test system: leukemia, ovarian, lung, and breast carcinoma cells; assay: Cytotoxicity against a cell line panel (XTT)
non-serum proteins = assay: Displacement of the MPT group by non-serum proteins; settings: tested non-serum proteins
Source text: as §1

immunoglobulins = assay: Displacement of the MPT group by immunoglobulins
Source text: as §1

[5] = Protocol: The solubility and partition coefficient data for 2 and taxol were determined using an HPLC method.
Solubility was found by forming a solution in water with the aid of sonication for five minutes, centrifugation of the samples, and injection of the supernatant. The values reported were normalized using calibration curves constructed for both compounds by preparing known concentrations in the range 1×10^-6 to 1×10^-3 M in methylene chloride and subjecting to HPLC analysis under the same conditions. […] Partition coefficients were determined by dissolving the compound in the organic phase, shaking the resulting solution with water for ten minutes, and analyzing each phase by HPLC as above.

[6] = Stability measurements of taxol-2'-MPT by HPLC (solid state and aqueous media); format: physicochemical
Protocol: Due to a difference in retention time using our standard HPLC conditions (see FIG. 1) and differing ultraviolet absorption maxima (l280 /l254 =1.6 for 2 and 0.3 for 1), the stability of 2 was easily assayed by HPLC (FIG. 1). […] In phosphate buffered saline (PBS) or ammonium acetate-phosphate buffer systems of pH 6.0 to 7.3, 2 is stable at 25° C. for over 21 days. Taxol-2'-MPT (2) is, however, unstable in 5% HCl (pH 1.1) and brine.
Under these conditions 20% of total is recovered. More particularly, Taxol-2'-MPT (2) was dissolved in the aqueous system with the aid of sonication for five minutes. Aliquots were then removed at the times shown and partitioned into methylene chloride to quench the reaction. Samples were then analyzed using a Waters Maxima HPLC instrument equipped with an autoinjector (3.9×300 mm C18 column equipped with a precolumn. The flow rate was 1.5 mL/minute. The eluent gradient A-B extended over 30 minutes. "A" was 80% 80 mM ammonium acetate, pH 6.0. "B" was 100% methanol. An ultraviolet diode array detector was employed. The ratio of compound 2 (Rf 16.2 min.) to taxol (compound 1, Rf 16.8 min.) remaining was determined from the relative areas of the peaks after normalization with previously determined calibration curves.

serum albumen = assay: Displacement of the MPT group by serum albumen
Source text: as §1

human leukemia = assay: Cytotoxicity, human leukemia (XTT); settings: 72 hours
cervical carcinoma = assay: Cytotoxicity, cervical carcinoma (XTT); settings: 72 hours
metastatic melanoma = assay: Cytotoxicity, metastatic melanoma (XTT); settings: 72 hours

conversion to taxol in vivo ([1]; inferred from xenograft results): converted rapidly to taxol in vivo | dissociation period of protein:taxol intermediate (serum protein; dialysis): hours or days | critical concentration (exponential increase in optical density; critical aggregation concentration) ([2]; OD at 340 nm): 400 µM | diameter of helical fibrillar structures ([2]; TEM): ca. 80 Å | helical twist ([2]; TEM): about 7 | length of helical fibrillar structures ([2]; TEM): up to 800 Å | concentration above which buffered solutions exhibit haze and diffuse scattering ([2]; buffered solutions): greater than 1×10^-3 M | time to complete conversion of 2 into taxol in plasma [3]: ≤ 10 min | conversion to taxol in assay buffer (tubulin; buffered aqueous environment of this assay): not converted to taxol | displacement of MPT group by non-serum proteins (non-serum proteins): seemed to lack this activity | displacement of MPT group by immunoglobulins (immunoglobulins): particularly effective | degradation during solubility and partition studies [5]: No degradation | stability in 5% HCl ([6]; 5% HCl (pH 1.1)): unstable | stability in brine ([6]; brine): unstable | stability in phosphate buffered saline or ammonium acetate-phosphate buffer ([6]; pH 6.0 to 7.3, 25° C.): over 21 days | stability in aqueous media at physiological pH and ion strength ([6]; physiological pH and ion strength): essentially completely stable | displacement of MPT group by serum albumen (serum albumen): particularly effective
SMILES: CC(=O)O[C@H]1C(=O)[C@@]2(C)[C@H]([C@H](OC(=O)c3ccccc3)[C@]3(O)C[C@H](OC(=O)[C@H](Oc4cccc[n+]4C)[C@@H](NC(=O)c4ccccc4)c4ccccc4)C(C)=C1C3(C)C)[C@]1(OC(C)=O)CO[C@@H]1C[C@@H]2O [Compound 2, Taxol-2'-MPT (methylpyridinium tosylate)]
control of tumor growth ([1]; I.P. day 1,3, and 7, 2 23.9 mg/kg, taxol 18.0 mg/kg, preliminary data): at least comparable to that of taxol | displacement of MPT group / formation of protein:taxol intermediate (serum protein; contacted with serum protein): observed to displace its MPT group and form a protein:taxol intermediate | appearance of water solutions ([2]; water, all concentrations examined): optically clear at all concentrations examined | suppression of calcium chloride promoted depolymerization (tubulin): not by taxol-2'-MPT | microtubule polymerization-depolymerization profile (tubulin; compared with GTP-saline controls and taxol): very similar to GTP-saline controls and drastically different from taxol | binding to tubulin (tubulin; inferred from polymerization assay): does not appear to bind to tubulin in the manner of taxol | cytotoxicity (discussion statement) [4]: lack of cytotoxicity | differential cytotoxicity profile ([4]; 2 compared with taxol): similar, although some differences were noted | solubility in aqueous systems relative to clinically relevant dosages [5]: higher than the clinically relevant dosages (3 to 30 mM) | water solubility relative to taxol [5]: significantly more soluble in water than the parent taxol | stability in most aqueous media ([6]; most aqueous media): remarkably stable compound in most aqueous media | taxol release in aqueous solutions ([6]; sterile water, pH 6.2 phosphate buffered saline or 5% dextrose, 25° C., 11 minutes): no taxol release is observed over a period of 11 minutes

SMILES: CC(=O)O[C@H]1C(=O)[C@@]2(C)[C@H]([C@H](OC(=O)c3ccccc3)[C@]3(O)C[C@H](OC(=O)[C@H](O)[C@@H](NC(=O)c4ccccc4)c4ccccc4)C(C)=C1C3(C)C)[C@]1(OC(C)=O)CO[C@@H]1C[C@@H]2O [Taxol, taxol]
cytotoxicity level, human leukemia (human leukemia): Extremely high cytotoxicity levels | suppression of calcium chloride promoted depolymerization (tubulin): suppressed by taxol | cytotoxicity level, cervical carcinoma (cervical carcinoma): Extremely high cytotoxicity levels | cytotoxicity level, metastatic melanoma (metastatic melanoma): Extremely high cytotoxicity levels
